Source: the supplement of paper PMC10331698
± gives the standard deviation of the averaged measurements.

Assays:
Experiment in all cases: level (log10 ratio to DMSO vehicle control); higher = higher biomarker level / cell amount than vehicle control
Details in all cases: in DMSO
Azathioprine = compound: Cn1cnc([N+](=O)[O-])c1Sc1ncnc2[nH]cnc12 [Azathioprine]
Method: (§1)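 BioMAP Diversity Plus panel of 12 human primary cell co-culture systems (3C, 4H, LPS, SAg, BT, BF4T, BE3C, CASM3C, HDF3CGF, KF3CT, MyoF, Mphg). Compounds were added 1 h before stimulation and left for 24 h (MyoF 48 h; BT 72 h for soluble read-outs or 6 d for IgG). Biomarkers were read by ELISA, cytotoxicity by SRB, PBMC viability and proliferation by Alamar Blue. Each well value was divided by the mean of 8 DMSO control wells on the same plate and log10 transformed; duplicate blinded samples were tested at 4 concentrations.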

1-(Perfluorohexyl)octane = compound: CCCCCCCCC(F)(F)C(F)(F)C(F)(F)C(F)(F)C(F)(F)C(F)(F)F [1-(Perfluorohexyl)octane]
Method: as §1

[1] = compound: O=C(O)C(F)(F)OC(F)(F)C(F)(F)OC(F)(F)C(F)(F)C(F)(F)C(F)(F)F [Perfluoro-3,6-dioxadecanoic acid]
Method: as §1

[2] = compound: C=C(C)C(=O)OCC(F)(F)C(F)(F)C(F)(F)C(F)(F)C(F)(F)C(F)(F)C(F)(F)F
Method: as §1

[3] = compound: CNS(=O)(=O)C(F)(F)C(F)(F)C(F)(F)C(F)(F)C(F)(F)C(F)(F)C(F)(F)C(F)(F)F [N-Methylperfluorooctanesulfonamide]
Method: as §1

[4] = compound: O=P(O)(O)CCC(F)(F)C(F)(F)C(F)(F)C(F)(F)C(F)(F)C(F)(F)C(F)(F)C(F)(F)F [((Perfluorooctyl)ethyl)phosphonic acid]
Method: as §1

[5] = compound: O=S(=O)(O)C(F)(F)C(F)(F)C(F)(F)C(F)(F)C(F)(F)C(F)(F)C(F)(F)C(F)(F)F [Potassium perfluorooctanesulfonate]
Method: as §1

| Test System | level (log10) (Azathioprine; 1400 nM) | level (log10) (Azathioprine; 4200 nM) | level (log10) (Azathioprine; 13000 nM) | level (log10) (Azathioprine; 38000 nM) | level (log10) (1-(Perfluorohexyl)octane; 6700 nM) | level (log10) (1-(Perfluorohexyl)octane; 20000 nM) | level (log10) ([1]; 6700 nM) | level (log10) ([1]; 20000 nM) | level (log10) ([1]; 60000 nM) | level (log10) ([2]; 6700 nM) | level (log10) ([2]; 20000 nM) | level (log10) ([3]; 6700 nM) | level (log10) ([3]; 20000 nM) | level (log10) ([3]; 60000 nM) | level (log10) ([4]; 6700 nM) | level (log10) ([4]; 20000 nM) | level (log10) ([4]; 60000 nM) | level (log10) ([5]; 6700 nM) | level (log10) ([5]; 20000 nM) | level (log10) ([5]; 60000 nM) |
| --- | --- | --- | --- | --- | --- | --- | --- | --- | --- | --- | --- | --- | --- | --- | --- | --- | --- | --- | --- | --- |
| HDF3CGF:CCL2/MCP-1 | -0.0095 ± 0.018 | -0.005 ± 0.0057 | -0.0255 ± 0.0035 | -0.043 ± 0.024 | -0.0185 ± 0.005 | -0.004 ± 0.013 | 0.0135 ± 0.018 | -0.017 ± 0.0071 | -0.043 ± 0.0014 | -0.0205 ± 0.03 | -0.007 ± 0.0042 | 0.034 ± 0.0085 | 0.0305 ± 0.0035 | 0.029 ± 0.014 | 0.028 ± 0.011 | -0.005 ± 0.0014 | -0.0855 ± 0.056 | 0.002 ± 0.011 | -0.003 ± 0.0042 | 0.001 ± 0.017 |
| HDF3CGF:CD54/ICAM-1 | -0.0065 ± 0.011 | 0.0045 ± 0.0078 | 0.0015 ± 0.019 | -0.0195 ± 0.012 | 0.0025 ± 0.005 | -0.0055 ± 0.037 | -0.0025 ± 0.021 | -0.0125 ± 0.026 | -0.038 ± 0.04 | -0.008 ± 0.0085 | -0.01 ± 0.014 | -0.002 ± 0.0028 | -0.0075 ± 0.019 | -0.0845 ± 0.0035 | -0.009 ± 0.0099 | -0.0235 ± 0.015 | -0.0625 ± 0.028 | -0.0015 ± 0.0064 | -0.002 ± 0.014 | -0.0525 ± 0.012 |
| HDF3CGF:CD106/VCAM-1 | -0.0485 ± 0.1 | -0.021 ± 0.03 | -0.08 ± 0.042 | -0.243 ± 0.0057 | -0.004 ± 0.016 | -0.0265 ± 0.0064 | -0.0845 ± 0.0021 | -0.15 ± 0.0057 | -0.21 ± 0.013 | -0.01 ± 0.037 | -0.017 ± 0.11 | -0.164 ± 0.017 | -0.176 ± 0.029 | -0.154 ± 0.0021 | 0.098 ± 0.0028 | -0.006 ± 0.0085 | -0.145 ± 0.012 | -0.032 ± 0.027 | -0.0925 ± 0.018 | -0.281 ± 0.026 |
| HDF3CGF:CXCL8/IL-8 | 0.006 ± 0.014 | -0.0155 ± 0.021 | -0.009 ± 0.0028 | 0.0045 ± 0.029 | 0.0065 ± 0.0064 | 0.008 ± 0.0057 | -0.0065 ± 0.005 | -0.001 ± 0.0028 | 0.001 ± 0.016 | -0.0015 ± 0.016 | 0.0045 ± 0.00071 | -0.0145 ± 0.0035 | -0.0195 ± 0.00071 | -0.0015 ± 0.0035 | -0.0065 ± 0.022 | -0.005 ± 0.0057 | -0.0485 ± 0.011 | -0.007 ± 0.0085 | -0.0065 ± 0.0035 | 0.004 ± 0.013 |
| HDF3CGF:CXCL9/MIG | -0.002 ± 0.018 | -0.0215 ± 0.013 | -0.026 ± 0.02 | -0.0645 ± 0.005 | 0.0055 ± 0.00071 | 0.025 ± 0.014 | -0.0175 ± 0.0064 | -0.046 ± 0.092 | -0.126 | 0.02 ± 0.024 | 0.0165 ± 0.015 | -0.0065 ± 0.03 | 0.0105 ± 0.011 | -0.0205 ± 0.011 | 0.102 ± 0.017 | 0.0505 ± 0.018 | -0.0155 ± 0.061 | -0.024 ± 0.024 | -0.017 ± 0.02 | -0.116 ± 0.04 |
| HDF3CGF:CXCL10/IP-10 | -0.0225 ± 0.022 | -0.037 ± 0.044 | -0.0825 ± 0.012 | -0.152 ± 0.0078 | -0.02 ± 0.041 | -0.03 ± 0.055 | -0.0505 ± 0.019 | -0.0745 ± 0.026 | -0.156 ± 0.04 | -0.012 ± 0.0042 | -0.002 ± 0.025 | -0.102 ± 0.064 | -0.099 ± 0.071 | -0.0875 ± 0.022 | 0.077 ± 0.0014 | 0.0255 ± 0.005 | -0.0375 ± 0.005 | -0.0815 ± 0.03 | -0.131 ± 0.06 | -0.313 ± 0.044 |
| HDF3CGF:CXCL11/I-TAC | -0.0495 ± 0.018 | -0.042 ± 0.055 | -0.078 ± 0.014 | -0.21 ± 0.04 | -0.0255 ± 0.023 | -0.0365 ± 0.057 | -0.0355 ± 0.023 | -0.0895 ± 0.028 | -0.168 ± 0.024 | 0.016 ± 0.0071 | -0.009 ± 0.023 | -0.0385 ± 0.015 | -0.069 ± 0.0071 | -0.0495 ± 0.011 | 0.084 ± 0.0014 | 0.064 ± 0.018 | -0.0155 ± 0.035 | 0.0005 ± 0.019 | -0.0375 ± 0.015 | -0.135 ± 0.0028 |
| HDF3CGF:Collagen I | -0.0185 ± 0.005 | -0.059 ± 0.044 | -0.0475 ± 0.028 | -0.034 ± 0.064 | 0.006 ± 0.0085 | -0.01 ± 0.1 | -0.052 ± 0.011 | -0.0485 ± 0.0064 | -0.095 ± 0.13 | -0.0035 ± 0.0078 | 0.0375 ± 0.005 | -0.0245 ± 0.012 | -0.041 ± 0.038 | 0.0085 ± 0.066 | -0.041 | -0.116 ± 0.015 | -0.148 ± 0.1 | 0.0215 ± 0.0064 | -0.0125 ± 0.0092 | -0.0295 ± 0.061 |
| HDF3CGF:Collagen III | -0.0145 ± 0.074 | -0.114 ± 0.088 | -0.101 ± 0.0064 | -0.22 ± 0.096 | -0.029 ± 0.042 | -0.0315 ± 0.042 | -0.024 ± 0.044 | -0.0885 ± 0.035 | -0.286 ± 0.045 | -0.004 ± 0.0042 | -0.0005 ± 0.0078 | -0.102 ± 0.0035 | -0.143 ± 0.011 | -0.092 ± 0.037 | -0.119 ± 0.011 | -0.193 | -0.281 ± 0.029 | -0.013 ± 0.0099 | -0.0525 ± 0.042 | -0.106 ± 0.017 |
| HDF3CGF:EGFR | -0.006 ± 0.0014 | -0.0565 ± 0.076 | -0.05 ± 0.061 | -0.011 ± 0.1 | -0.007 ± 0.0028 | 0.0125 ± 0.005 | -0.0005 ± 0.0064 | -0.0815 ± 0.026 | -0.135 ± 0.016 | 0.0245 ± 0.005 | -0.007 ± 0.048 | 0.016 ± 0.0057 | -0.014 ± 0.023 | 0.0055 ± 0.0064 | -0.0125 ± 0.016 | -0.045 ± 0.024 | -0.126 ± 0.059 | -0.0055 ± 0.019 | -0.0305 ± 0.012 | -0.0905 ± 0.029 |
| HDF3CGF:M-CSF | -0.0255 ± 0.039 | -0.018 ± 0.042 | -0.0595 ± 0.011 | -0.184 ± 0.025 | -0.022 ± 0.031 | -0.0025 ± 0.021 | -0.0555 ± 0.067 | -0.065 ± 0.011 | -0.152 ± 0.0078 | 0.009 ± 0.033 | 0.0245 ± 0.03 | 0.0055 ± 0.018 | 0.006 ± 0.025 | -0.001 ± 0.027 | 0.0235 ± 0.016 | -0.009 ± 0.0028 | -0.113 ± 0.016 | 0.0165 ± 0.0078 | 0.012 ± 0.0014 | -0.151 ± 0.018 |
| HDF3CGF:MMP-1 | 0.0005 ± 0.0021 | 0.02 ± 0.021 | 0.0275 ± 0.022 | 0.0415 ± 0.0021 | -0.0395 ± 0.012 | -0.014 ± 0.023 | -0.023 ± 0.011 | -0.0485 ± 0.013 | -0.068 ± 0.011 | -0.003 ± 0.02 | -0.0045 ± 0.026 | -0.008 ± 0.016 | -0.005 ± 0.011 | 0.0005 ± 0.013 | -0.019 ± 0.011 | -0.021 ± 0.0057 | -0.05 ± 0.0042 | -0.0075 ± 0.011 | -0.0155 ± 0.0092 | -0.0025 ± 0.005 |
| HDF3CGF:PAI-I | 0.022 ± 0.054 | -0.015 ± 0.037 | -0.0545 ± 0.04 | -0.198 ± 0.021 | 0.0005 ± 0.016 | 0.0165 ± 0.0021 | 0.0225 ± 0.013 | 0.0375 ± 0.0021 | 0.045 ± 0.024 | 0.011 ± 0.0099 | 0.0095 ± 0.019 | 0.051 ± 0.0028 | 0.0455 ± 0.019 | 0.063 ± 0.02 | -0.028 ± 0.035 | -0.101 ± 0.06 | -0.2695 ± 0.0021 | 0.0485 ± 0.0064 | 0.011 ± 0.021 | -0.181 ± 0.18 |
| HDF3CGF:Proliferation 72hr | -0.0455 ± 0.079 | -0.061 ± 0.035 | -0.057 ± 0.0057 | -0.162 ± 0.027 | 0.0085 ± 0.077 | 0.0325 ± 0.005 | 0.0245 ± 0.00071 | 0.116 ± 0.011 | -0.0545 ± 0.036 | 0.019 ± 0.018 | 0.001 ± 0.038 | -0.001 ± 0.073 | 0.0205 ± 0.073 | -0.056 ± 0.095 | 0.017 ± 0.065 | -0.0105 ± 0.087 | -0.374 ± 0.034 | 0.13 ± 0.079 | 0.155 ± 0.09 | -0.732 ± 0.039 |
